Read-outs that look alike come from different tables or passages of the source. Non-standard residues stand in square brackets, D forms with d. Residues, ends and D or L forms follow the SMILES beside them. No end group written: not given here. *: point of attachment. Orn = NCCC[C@H](N)C(=O)O; Cbz = O=C(OCc1ccccc1)*; CH2F = FC*
Assays:
P. falciparum = tested on: P. falciparum; design: method as in 6 sources, ref 23 = [23]; PMID 16723585; doi:10.1128/AAC.00022-06; 23. Parikh S. Liu J. Sijwali P. Gut J. Goldberg D.E. Rosenthal P.J. Antimalarial effects of human immunodeficiency virus type 1 protease inhibitors differ from those of the aspartic protease inhibitor ||| ref 24 = [24]; PMID 11172676; doi:10.2174/0929867013373787; 24. Meinke P.T. Liberator P. Histone deacetylase: A target for antiproliferative and antiprotozoal agents Current Med. Chem. 2001 8 211 235 10.2174/0929867013373787 11172676 ||| ref 12 = [12]; PMID 16643062; doi:10.1021/np050549h; 12. Thongtan J. Saenboonrueng J. Rachtawee P. Isaka M. An antimalarial tetrapeptide from the entomopathogenic fungus Hirsutella sp. BCC 1528 J. Nat. Prod. 2006 69 713 714 10.1021/np050549h 16643062 ||| ref 25 = [25]; PMID 18305429; doi:10.3390/molecules13020432; 25. Sathe M. Thavaselvam D. Srivastava A.K. Kaushik M.P. Synthesis and antimalarial evaluation of cyclic β-amino acid-containing dipeptides Molecules 2008 13 432 443 10.3390/molecules13020432 18305429 ||| ref 30, 31 = [30]; PMID 1939639; doi:10.1172/JCI115456; 30. Rosenthal P.J. Wollish W.S. Palmer J.T. Rasnick D. Antimalarial effects of peptide inhibitors of a Plasmodium falciparum cysteine proteinase J. Clin. Invest. 1991 88 1467 1472 10.1172/JCI115456 19 || [31]; PMID 8807047; doi:10.1128/aac.40.7.1600; 31. Rosenthal P.J. Olson J.E. Lee G.K. Palmer J.T. Klaus J.L. Rasnick D. Antimalarial effects of vinyl sulfone cysteine proteinase inhibitors Antimicrob. Agents Chemother. 1996 40 1600 1603 8807047 10 ||| ...; settings: cited from earlier work; for IC50 in vitro: maturation schizonts and total growth inhibition assays; for IC50: read-out: IC50 against P. falciparum
P. berghei = tested on: P. berghei; design: method as in 2 sources, ref 29 = [29]; PMID 8917558; doi:10.1073/pnas.93.23.13143; 29. Darkin-Rattray S.J. Gurnett A.M. Myers R.W. Dulski P.M. Crumley T.M. Allocco J.J. Cannova C. Meinke P.T. Colletti S.L. Bednarek M.A. Singh S.B. Goetz M.A. Dombrowski A.W. Polishook J.D. Schmatz D. ||| ref 25 = [25]; PMID 18305429; doi:10.3390/molecules13020432; 25. Sathe M. Thavaselvam D. Srivastava A.K. Kaushik M.P. Synthesis and antimalarial evaluation of cyclic β-amino acid-containing dipeptides Molecules 2008 13 432 443 10.3390/molecules13020432 18305429; settings: cited from earlier work
[1] = tested on: Plasmodium berghei schizonts (ANKA 2.34), chloroquine-sensitive; test: microbe, parasite or virus in culture; settings: for Chemosuppression of P. berghei schizont cultures (%): compound 200 μM, schizonts counted in 2,000 erythrocytes
Procedure: Mature P. berghei schizonts were prepared as described by Thathy and Menard. […] Parasites were incubated for 16 h at 37 °C as described. Chloroquine (C6628 Sigma Chloroquine diphosphate salt solid, ≥98% purity) was used as positive control. Samples of 0.5 mL of each culture were taken to prepare smears and used to count numbers of schizonts in 2,000 erythrocytes. The IC50 values of each compound were determined using concentrations of 5, 50, 100, and 200 µM, according to Khalid et al., and by extrapolation from the concentration response curve. The IC50 value represents the drug concentration producing a 50% reduction in the number of P. berghei schizonts (compared to drug-free control cultures).

[2] = tested on: trophozoite cysteine proteinase (TCP); design: method as in PMID 1939639, PMID 8807047; settings: cited from earlier work
malarial infected mice = settings: four days of subcutaneous administration; cited from earlier work
[3] = 16 h at 37 °C, duplicate, averaged
[4] = read-out: IC50 (50% reduction in the number of P. berghei schizonts), 16 h at 37 °C, concentrations 5, 50, 100, 200 µM, extrapolation from concentration response curve, duplicate, averaged

Question: With “2-(2-tert-butoxycarbonylamino-3-phenyl-propionylamino)-cyclooctanecarboxylic acid methyl ester” as the compound, how does the IC50 in vitro (P. falciparum) read?
Answer: 3.64 µg/mL

Question: And the “in vivo antimalarial activity against P. berghei” value (P. berghei)?
Answer: active in vivo

Question: With “2-(2-tert-butoxycarbonylamino-4-methylpentanoyl-amino)-cyclooctanecarboxylic acid methyl ester” as the compound, how does the IC50 in vitro (P. falciparum) read?
Answer: 3.87 µg/mL

Question: What does the source list for CCN(CC)CCCC(C)Nc1ccnc2cc(Cl)ccc12 (stereo not shown) [Chloroquine]?
Answer: IC50 ([1]; Plasmodium berghei, 16 h, read-out: IC50 (50% reduction in the number of P. berghei schizonts)): 0.06 µM; Chemosuppression of P. berghei schizont cultures (%) [1, 3]: 100%

Question: With CC[C@H](C)[C@H](N)C(=O)N[C@@H](CCCCN)C(=O)N[C@@H](Cc1ccccc1)C(=O)N[C@@H](CCCN)C(=O)O [Compound 1, Ile-Lys-Phe-Orn] (H-IKF[Orn]-OH) as the compound, how does the IC50 ([1]; 16 h) read?
Answer: 32.4 µM

Question: For CC(C)[C@H](N)C(=O)N[C@@H](CCCCN)C(=O)N[C@@H](Cc1ccccc1)C(=O)N[C@@H](CCCN)C(=O)O [Compound 2, Val-Lys-Phe-Orn] (H-VKF[Orn]-OH), which IC50 ([1]; 16 h) is on record?
Answer: 10 µM

Question: For NCCCC[C@H](N)C(=O)N[C@@H](CCCN)C(=O)N[C@@H](Cc1ccccc1)C(=O)N[C@@H](CCCN)C(=O)O [Compound 3, Lys-Orn-Phe-Orn] (H-K[Orn]F[Orn]-OH), which IC50 ([1]; 16 h) is on record?
Answer: 13.5 µM

Question: Which IC50 ([1]; 16 h) does the source give for NCCCC[C@H](N)C(=O)N[C@@H](Cc1ccccc1)C(=O)N[C@@H](Cc1ccccc1)C(=O)N[C@@H](CCCN)C(=O)O [Compound 5, Lys-Phe-Phe-Orn] (H-KFF[Orn]-OH) here?
Answer: 2.57 µM

Question: With CC(C)[C@H](NC(=O)[C@H](CCCCN)NC(=O)[C@H](Cc1ccccc1)NC(=O)[C@@H](N)CCCN)C(=O)O [Compound 6, Orn-Phe-Lys-Val] (H-[Orn]FKV-OH; N-terminus assumed) as the compound, how does the IC50 ([1]; 16 h) read?
Answer: > 200 µM

Question: What about the “Chemosuppression of P. berghei schizont cultures (%)” value [1, 3] of the same compound?
Answer: 26.58%

Question: What about the “antimalarial activity in words (P. berghei schizont cultures)” value ([1]; in vitro, 16 h) of the same compound?
Answer: inactive

Question: What does the source list for CC(C)[C@H](NC(=O)[C@@H](N)CCCCN)C(=O)N1CCC[C@H]1C(=O)N[C@@H](CCCN)C(=O)O [Compound 7, Lys-Val-Pro-Orn] (H-KVP[Orn]-OH; N-terminus assumed)?
Answer: IC50 ([1]; 16 h): > 200 µM; Chemosuppression of P. berghei schizont cultures (%) [1, 3]: 27.39%

Question: With CC(C)[C@H](NC(=O)[C@@H](N)CCCCN)C(=O)N[C@@H](Cc1ccccc1)C(=O)N1CCC[C@H]1C(=O)O [Compound 8, Lys-Val-Phe-Pro] (H-KVFP-OH) as the compound, how does the IC50 [1, 4] read?
Answer: 51.3 µM

Question: With CC(C)[C@H](NC(=O)[C@H](CCCN)NC(=O)[C@@H](N)Cc1ccccc1)C(=O)O [Compound 9, Phe-Orn-Val] (H-Phe-[Orn]-Val-OH) as the compound, how does the IC50 ([1]; 16 h) read?
Answer: 120 µM

Question: With COC(=O)N[C@H](C(=O)N[C@@H](Cc1ccccc1)[C@@H](O)CN(Cc1ccc(-c2ccccn2)cc1)NC(=O)[C@@H](NC(=O)OC)C(C)(C)C)C(C)(C)C [atazanavir] as the compound, how does the “inhibition of P. falciparum in vitro” value (P. falciparum) read?
Answer: inhibit P. falciparum in vitro

Question: For CC(C)(C)NC(=O)[C@@H]1C[C@@H]2CCCC[C@@H]2CN1C[C@@H](O)[C@H](Cc1ccccc1)NC(=O)[C@H](CC(N)=O)NC(=O)c1ccc2ccccc2n1 [saquinavir], which “inhibition of P. falciparum in vitro” value (P. falciparum) is on record?
Answer: inhibit P. falciparum in vitro

Question: With “Cbz-Phe-Arg-CH2F [peptidylfluoromethyl ketone]” as the compound, how does the “inhibition of trophozoite cysteine proteinase” value [2] read?
Answer: very potent inhibitor

Question: For F[Orn]F[Orn] [Compound 4], which “Chemosuppression of P. berghei schizont cultures (%)” value [1, 3] is on record?
Answer: 85.94%

Question: And the IC50 [1, 4]?
Answer: 3.31 µM

Question: With HC-toxin I as the compound, how does the “MIC against P. falciparum” value (P. falciparum) read?
Answer: 0.031 µg/mL

Question: For apicidin, which “MIC against P. falciparum” value (P. falciparum) is on record?
Answer: 0.125 µg/mL

Question: What about the “in vivo antimalarial activity against P. berghei” value (P. berghei) of the same compound?
Answer: potent in vivo antimalarial agent

Question: With apicidin A as the compound, how does the “MIC against P. falciparum” value (P. falciparum) read?
Answer: 0.125 µg/mL

Question: With hirsutellic A acid as the compound, how does the IC50 (P. falciparum) read?
Answer: 8 µM

Question: Which “cured malarial infected mice” value (malarial infected mice) does the source give for morpholine urea (Mu)-Phe-HPh-CH2F here?
Answer: 80%

Question: For pepstatin A, which IC50 (P. falciparum) is on record?
Answer: 7.5 µM
